Reference: the supplement of paper PMC10627819

Tests used:
S. aureus DSM 20231 [1] = test: fitness (endpoint OD595 vs no drug) (fraction); higher = more growth
Method in brief: (§1)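 Each well of a 384-well plate received 30 µl of culture at OD595 0.01, or 55 µl for S. pneumoniae. TSB, LB Lennox or CY served as media at 37 °C. OD595 was taken every 30 min for 14 h and corrected by subtracting the first reading. Fitness is the optical density at stationary-phase entry divided by the robust mean of no-drug controls, capped at 1.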

S. pneumoniae D39V [2] = test: as above
Method in brief: as §1

S. aureus Newman [3] = test: as above
Method in brief: as §1

B. subtilis 168 [4] = test: as above
Method in brief: as §1

S. aureus DSM 20231 [5] = test: Bliss interaction score (quartile over a dose matrix) (fitness difference); higher = more antagonism (negative = synergy)
Method in brief: (§2)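 At entry into stationary phase, OD595 was recorded and divided by the robust mean of the no-drug wells on that plate, with any value above 1 set to 1. This gives the fitness measure used throughout. Single-drug fitness was inferred from combination data, and the Bliss score, observed minus product-expected fitness, is shown as quartiles across technical, biological and donor/recipient replicates.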

S. pneumoniae D39V [6] = test: as above
Method in brief: as §2

S. aureus Newman [7] = test: as above
Method in brief: as §2

B. subtilis 168 [8] = test: as above
Method in brief: as §2
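For Bliss interaction score (quartile over a dose matrix) in this document: first quartile when negative (synergy) and third quartile when positive (antagonism).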

COc1c(N2C[C@@H]3CCCN[C@@H]3C2)c(F)cc2c(=O)c(C(=O)O)cn(C3CC3)c12 [Moxifloxacin] + COc1ccc(C[C@H](N)C(=O)N[C@H]2[C@@H](O)[C@H](n3cnc4c(N(C)C)ncnc43)O[C@@H]2CO)cc1 [Puromycin]
fitness
Conditions | partner 0.39 µg/mL | partner 0.78 µg/mL | partner 1 µg/mL | partner 1.56 µg/mL | partner 2 µg/mL | partner 4 µg/mL
B. subtilis 168 [4], first compound 0.0312 µg/mL | 0.0423 | 0.0567 | – | 0.053 | – | –
B. subtilis 168 [4], first compound 0.0625 µg/mL | 0.0666 | 0.0602 | – | 0.0585 | – | –
B. subtilis 168 [4], first compound 0.125 µg/mL | 0.0451 | 0.045 | – | 0.0653 | – | –
B. subtilis 168 [4], first compound 2 µg/mL | 0.0227 | 0.028 | – | 0.0306 | – | –
B. subtilis 168 [4], first compound 4 µg/mL | 0.021 | 0.0248 | – | 0.0303 | – | –
B. subtilis 168 [4], first compound 8 µg/mL | 0.009 | 0.0168 | – | 0.0189 | – | –
S. aureus DSM 20231 [1], first compound 0.0075 µg/mL | 0.885 | 0.928 | – | 0.861 | – | –
S. aureus DSM 20231 [1], first compound 0.015 µg/mL | 0.789 | 0.846 | – | 0.802 | – | –
S. aureus DSM 20231 [1], first compound 0.03 µg/mL | 0.681 | 0.695 | – | 0.668 | – | –
S. aureus Newman [3], first compound 0.0075 µg/mL | 0.797 | 0.757 | – | 0.817 | – | –
S. aureus Newman [3], first compound 0.015 µg/mL | 0.673 | 0.657 | – | 0.658 | – | –
S. aureus Newman [3], first compound 0.03 µg/mL | 0.119 | 0.161 | – | 0.282 | – | –
S. pneumoniae D39V [2], first compound 0.005 µg/mL | – | – | ≥ 1 | – | ≥ 1 | 0.885
S. pneumoniae D39V [2], first compound 0.01 µg/mL | – | – | ≥ 1 | – | 0.982 | 0.88
S. pneumoniae D39V [2], first compound 0.02 µg/mL | – | – | 1 | – | 0.985 | 0.88

one replicate
Conditions | fitness
S. aureus DSM 20231 [1], first compound 0.0075 µg/mL, partner 3.12 µg/mL | 0.779
S. aureus DSM 20231 [1], first compound 0.0075 µg/mL, partner 6.24 µg/mL | 0.642
S. aureus DSM 20231 [1], first compound 0.015 µg/mL, partner 3.12 µg/mL | 0.787
S. aureus DSM 20231 [1], first compound 0.015 µg/mL, partner 6.24 µg/mL | 0.509
S. aureus DSM 20231 [1], first compound 0.03 µg/mL, partner 3.12 µg/mL | 0.754
S. aureus DSM 20231 [1], first compound 0.03 µg/mL, partner 6.24 µg/mL | 0.547
S. aureus DSM 20231 [1], first compound 0.06 µg/mL, partner 0.39 µg/mL | 0.676
S. aureus DSM 20231 [1], first compound 0.06 µg/mL, partner 0.78 µg/mL | 0.7
S. aureus DSM 20231 [1], first compound 0.06 µg/mL, partner 1.56 µg/mL | 0.687
S. aureus DSM 20231 [1], first compound 0.12 µg/mL, partner 0.39 µg/mL | 0.48
S. aureus DSM 20231 [1], first compound 0.12 µg/mL, partner 0.78 µg/mL | 0.482
S. aureus DSM 20231 [1], first compound 0.12 µg/mL, partner 1.56 µg/mL | 0.558
S. pneumoniae D39V [2], first compound 0.0037 µg/mL, partner 1 µg/mL | 0.502
S. pneumoniae D39V [2], first compound 0.0037 µg/mL, partner 2 µg/mL | 0.431
S. pneumoniae D39V [2], first compound 0.0037 µg/mL, partner 4 µg/mL | 0.342
S. pneumoniae D39V [2], first compound 0.0075 µg/mL, partner 1 µg/mL | 0.846
S. pneumoniae D39V [2], first compound 0.0075 µg/mL, partner 2 µg/mL | 0.82
S. pneumoniae D39V [2], first compound 0.0075 µg/mL, partner 4 µg/mL | 0.77
S. pneumoniae D39V [2], first compound 0.015 µg/mL, partner 1 µg/mL | 0.935
S. pneumoniae D39V [2], first compound 0.015 µg/mL, partner 2 µg/mL | 0.798
S. pneumoniae D39V [2], first compound 0.015 µg/mL, partner 4 µg/mL | 0.763

Conditions | Bliss interaction score
B. subtilis 168 [8] | -0.0157
S. aureus DSM 20231 [5] | -0.0292
S. aureus Newman [7] | 0.0443
S. pneumoniae D39V [6] | 0.101

COc1c(N2C[C@@H]3CCCN[C@@H]3C2)c(F)cc2c(=O)c(C(=O)O)cn(C3CC3)c12 [Moxifloxacin] + C[n+]1ccc(-c2cc[n+](C)cc2)cc1 [Paraquat]
fitness
Conditions | partner 1.25 µg/mL | partner 1.5 µg/mL | partner 2.5 µg/mL | partner 3 µg/mL | partner 5 µg/mL | partner 6 µg/mL
B. subtilis 168 [4], first compound 0.0312 µg/mL | 0.0599 | – | 0.0539 | – | 0.0449 | –
B. subtilis 168 [4], first compound 0.0625 µg/mL | 0.044 | – | 0.0467 | – | 0.0504 | –
B. subtilis 168 [4], first compound 0.125 µg/mL | 0.0395 | – | 0.0537 | – | 0.0512 | –
B. subtilis 168 [4], first compound 2 µg/mL | 0.0316 | – | 0.0333 | – | 0.0436 | –
B. subtilis 168 [4], first compound 4 µg/mL | 0.0442 | – | 0.039 | – | 0.0413 | –
B. subtilis 168 [4], first compound 8 µg/mL | 0.0139 | – | 0.0174 | – | 0.0265 | –
S. aureus DSM 20231 [1], first compound 0.0075 µg/mL | 0.818 | – | 0.831 | – | 0.824 | –
S. aureus DSM 20231 [1], first compound 0.015 µg/mL | 0.748 | – | 0.712 | – | 0.774 | –
S. aureus DSM 20231 [1], first compound 0.03 µg/mL | 0.647 | – | 0.632 | – | 0.634 | –
S. aureus Newman [3], first compound 0.0075 µg/mL | 0.706 | – | 0.73 | – | 0.727 | –
S. aureus Newman [3], first compound 0.015 µg/mL | 0.583 | – | 0.565 | – | 0.554 | –
S. aureus Newman [3], first compound 0.03 µg/mL | 0.0423 | – | 0.0559 | – | 0.0929 | –
S. pneumoniae D39V [2], first compound 0.005 µg/mL | – | 0.979 | – | 0.994 | – | 0.969
S. pneumoniae D39V [2], first compound 0.01 µg/mL | – | 0.966 | – | 0.957 | – | 0.939
S. pneumoniae D39V [2], first compound 0.02 µg/mL | – | 0.947 | – | 0.927 | – | 0.893

fitness, one replicate
Conditions | partner 1.25 µg/mL | partner 1.5 µg/mL | partner 2.5 µg/mL | partner 3 µg/mL | partner 5 µg/mL | partner 6 µg/mL
S. aureus DSM 20231 [1], first compound 0.06 µg/mL | 0.684 | – | 0.7 | – | 0.699 | –
S. aureus DSM 20231 [1], first compound 0.12 µg/mL | 0.456 | – | 0.456 | – | 0.451 | –
S. pneumoniae D39V [2], first compound 0.0037 µg/mL | – | 0.906 | – | 0.857 | – | 0.896
S. pneumoniae D39V [2], first compound 0.0075 µg/mL | – | 0.878 | – | 0.852 | – | 0.868
S. pneumoniae D39V [2], first compound 0.015 µg/mL | – | 0.886 | – | 0.866 | – | 0.868

Conditions | Bliss interaction score
B. subtilis 168 [8] | 0.0133
S. aureus DSM 20231 [5] | -0.0639
S. aureus Newman [7] | -0.0625
S. pneumoniae D39V [6] | -0.0615
